In patent publication EP0167935A2, “Anthracycline derivatives, a process for the production thereof, a pharmaceutical composition containing the same and their use as medicaments” (priority 1984, dated 1986):
≈ marks a conversion by molar mass, not a printed value. Where two headings read alike, the source gives them in different places.

Legend:
leukemic cells P 388 = test: Inhibition of the growth of cultured leukemic cells P 388 (two-day culture); assay type: cell-based; details: Mus musculus, P388, 48 h
Text: (1) Activity of inhibiting the growth of cultures leukemic cells P 3FB8

Leukemia L 1210 = test: Anti-tumor effect for mice bearing Leukemia L 1210 (survival); assay type: in vivo, CDF1 mice; details: injected peritoneally for 10 days; for Percent survival (%): L 1210 1 x 10^5 cells/mouse i.p., 30 days observation, saline control = 100; for Toxicity remark in the percent survival cell: CDF1 mice bearing L 1210
Experimental: (2) Anti-tumor effect for mice bearing Leukemia L 1210
A group of CDF1 mice were intraperitoneally transplanted with suspensions of leukemic cells L 1210 (1 x 10^5 cells/mouse). Immediately after the transplantation, a.25 mℓ each of the test compounds was injected peritoneally into the mice for 10 days. Observation was made for 30 days, and the percent survival for each test compound was determined, with 100 representing the number of days which the control mice group administered physiological saline survived.

[1] = concentration giving 50% inhibition of growth of a two-day culture of P 388 cells vs untreated group, read-out: IC50

| Compound | IC50 (leukemic cells P 388) | Percent survival (%) (Leukemia L 1210; Dose 0.0313 mg/kg/day) | Percent survival (%) (Leukemia L 1210; Dose 0.0625 mg/kg/day) | Percent survival (%) (Leukemia L 1210; Dose 0.125 mg/kg/day) | Percent survival (%) (Leukemia L 1210; Dose 0.25 mg/kg/day) | Percent survival (%) (Leukemia L 1210; Dose 0.0078 mg/kg/day) | Percent survival (%) (Leukemia L 1210; Dose 0.0156 mg/kg/day) | further results |
| --- | --- | --- | --- | --- | --- | --- | --- | --- |
| CCC1(O)CC(OC2CC(N(C)C)C(OC3CC4OC5CC(=O)C(C)OC5OC4C(C)O3)C(C)O2)c2cc3c(c(O)c2C1OC1CC(N(C)C)C(OC2CC4OC5CC(=O)C(C)OC5OC4C(C)O2)C(C)O1)C(=O)c1c(O)ccc(O)c1C3=O (centres unmarked) [Compound 1-HSR, 1-hydroxyserirubicin] | 12 ng/mL (≈ 10.2 nM) | 108% | 127% | 151% | 145% |  |  | Percent survival (%) (Leukemia L 1210; Dose 0.5 mg/kg/day): 139%; Toxicity remark in the percent survival cell (Leukemia L 1210; Dose 1 mg/kg/day): Toxin; Percent survival (%) (Leukemia L 1210; Dose 1 mg/kg/day): 114% |
| CCC1(O)CC(OC2CC(N(C)C)C(O)C(C)O2)c2c(O)c3c(c(O)c2C1OC1CC(N(C)C)C(OC2CC4OC5CC(=O)C(C)OC5OC4C(C)O2)C(C)O1)C(=O)c1cccc(O)c1C3=O (centres unmarked) [DTR-B/7de-dF-CB, ditrisarubicin B/7 de-dF-CB] | 21 ng/mL (≈ 22.3 nM) |  |  |  |  |  |  |  |
| CCC1(O)CC(OC2CC(N(C)C)C(OC3CC4OC5CC(=O)C(C)OC5OC4C(C)O3)C(C)O2)c2c(O)c3c(c(O)c2C1OC1CC(N(C)C)C(O)C(C)O1)C(=O)c1cccc(O)c1C3=O (centres unmarked) [DTR-B/10de-dF-CB] |  |  |  |  |  |  |  | IC50 (leukemic cells P 388; [1]): 9 ng/mL (≈ 9.56 nM) |
| CCC1(O)CC(OC2CC(N(C)C)C(OC3CCC(OC4C=CC(=O)C(C)O4)C(C)O3)C(C)O2)c2c(O)c3c(c(O)c2C1OC1CC(N(C)C)C(OC2CC4OC5CC(=O)C(C)OC5OC4C(C)O2)C(C)O1)C(=O)c1cccc(O)c1C3=O (centres unmarked) [DTR-CR, ditrisarubicin CR] | 4 ng/mL (≈ 3.43 nM) |  |  |  |  |  |  |  |
| CCC1(O)CC(OC2CC(N(C)C)C(OC3CC4OC5CC(=O)C(C)OC5OC4C(C)O3)C(C)O2)c2c(O)c3c(c(O)c2C1OC1CC(N(C)C)C(OC2CCC(OC4CCC(=O)C(C)O4)C(C)O2)C(C)O1)C(=O)c1cccc(O)c1C3=O (centres unmarked) [DTR-D, ditrisarubicin D] | 4 ng/mL (≈ 3.43 nM) | 125% | 142% | 114% | 131% | 97% | 102% |  |
| CCC1(O)CC(OC2CC(N(C)C)C(OC3CC(O)C(OC4CCC(=O)C(C)O4)C(C)O3)C(C)O2)c2c(O)c3c(c(O)c2C1OC1CC(N(C)C)C(OC2CC(O)C(OC4CCC(=O)C(C)O4)C(C)O2)C(C)O1)C(=O)c1cccc(O)c1C3=O (centres unmarked) [DTR-E, ditrisarubicin E] |  | 119% | 163% | 156% | 106% | 102% | 102% | IC50 (leukemic cells P 388; [1]): 7 ng/mL (≈ 5.91 nM) |
| CCC1(O)CC(OC2CC(N(C)C)C(OC3CC4OC5CC(=O)C(C)OC5OC4C(C)O3)C(C)O2)c2c(O)c3c(c(O)c2C1OC1CC(N(C)C)C(OC2CCC(OC4CCC(O)C(C)O4)C(C)O2)C(C)O1)C(=O)c1cccc(O)c1C3=O (centres unmarked) [DTR-F, ditrisarubicin F] | 3.8 ng/mL (≈ 3.25 nM) | 127% | 133% | 152% | 133% | 101% | 120% | Toxicity remark in the percent survival cell (Leukemia L 1210; Dose 0.25 mg/kg/day): Toxin |
| CCC1(O)CC(OC2CC(N(C)C)C(OC3CC4OC5CC(=O)C(C)OC5OC4C(C)O3)C(C)O2)c2c(O)c3c(c(O)c2C1OC1CC(N(C)C)C(OC2CC(O)C(OC4CCC(O)C(C)O4)C(C)O2)C(C)O1)C(=O)c1cccc(O)c1C3=O (centres unmarked) [DTR-G, ditrisarubicin G] | 4.5 ng/mL (≈ 3.8 nM) | 117% | 163% | 138% | 125% | 109% | 111% | Toxicity remark in the percent survival cell (Leukemia L 1210; Dose 0.25 mg/kg/day): Toxin |
| CCC1(O)CC(OC2CC(N(C)C)C(OC3CC4OC5CC(=O)C(C)OC5OC4C(C)O3)C(C)O2)c2c(O)c3c(c(O)c2C1OC1CC(N(C)C)C(OC2CC(O)C(O)C(C)O2)C(C)O1)C(=O)c1cccc(O)c1C3=O (centres unmarked) [DTR-G/de-Ro] | 12 ng/mL (≈ 11.2 nM) |  |  |  |  |  |  |  |
| CCC1(O)CC(OC2CC(N(C)C)C(OC3CC(O)C(OC4CCC(O)C(C)O4)C(C)O3)C(C)O2)c2c(O)c3c(c(O)c2C1OC1CC(N(C)C)C(OC2CC4OC5CC(=O)C(C)OC5OC4C(C)O2)C(C)O1)C(=O)c1cccc(O)c1C3=O (centres unmarked) [DTR-GR, ditrisarubicin GR] | 4.2 ng/mL (≈ 3.54 nM) |  |  |  |  |  |  |  |
| CCC1(O)CC(OC2CC(N(C)C)C(OC3CC(O)C(O)C(C)O3)C(C)O2)c2c(O)c3c(c(O)c2C1OC1CC(N(C)C)C(OC2CC4OC5CC(=O)C(C)OC5OC4C(C)O2)C(C)O1)C(=O)c1cccc(O)c1C3=O (centres unmarked) [DTR-GR/de-Ro] | 20 ng/mL (≈ 18.7 nM) |  |  |  |  |  |  |  |
